From patent US12708673B2, “Methods and compositions related to peptides and proteins with c-terminal elements” (Sanford Burnham Prebys Medical Discovery Institute, priority 2008, dated 2026)
Entries after “also recorded” stand apart in the source; their conditions may differ.

How the values were obtained:
PPC-1 cells [1] = test: T7 phage binding to PPC-1 (PPC1) cells at 4° C., quantified by titration/plaque assay; assay type: cell-based, human
Procedure: FIG. 2A: Binding of T7 phage to prostate cancer cells depends on the display of a C-terminal arginine on the phage particles. PPC1 cells were incubated with T7 bacteriophage displaying derivatives of the G7 (upper graph) or RPARPAR peptide (SEQ ID NO: 2) (lower graph) at 4° C., and the bound phage was quantified by plaque assay. Binding is expressed in fold over of the non-binding G7 control phage. FIG. 2B: Phage displaying C-terminal arginine is internalized into cultured PPC1 cells (arrow, nuclear internalization; arrowhead, cytoplasmic internalization). A panel of T7 phage clones were incubated at 37° C. with PPC1 cells grown on collagen-coated coverslips, stained with anti T7 antibody and imaged by confocal microscopy.
(§1) Phage display. For in vivo phage display, mice were injected intravenously with 10^10 plaque-forming units (pfu) of T7 phage followed by perfusion of the circulatory system and determination of the bound phage in target organs by titration. For cell binding studies on cultured cells (in vitro display) and organ-derived cell suspensions (ex vivo display), the cells were incubated with 10^9 pfu of phage at 4° C., washed, lysed, and quantified by titration. Incubation at 37° C. followed by low pH wash (glycine-HCl, pH 2.5) was used to assess the amount of internalized phage.
For biopanning and phage binding studies (Hoffman, J. A. et al., 2004), cultured cells were grown to confluence and harvested with trypsin and mouse organs were dissociated using Medimachine (BD Biosciences, San Jose, CA). To measure phage binding, 10^6 cells in binding buffer (DMEM containing 1% BSA) were incubated with 10^9 pfu/ml of T7 phage for 1 hour at 4° C. The cells were washed 4 times with the binding buffer, lysed in LB bacterial growth medium containing 1% NP-40, and titrated. Phage internalization assays used the same procedure, except that the cells were incubated with the phage at 37° C., and that an acidic buffer (500 mM sodium chloride, 0.1 M glycine, 1% BSA, pH 2.5) was used instead of binding buffer in the second wash.
Centrifugation on a silicone oil cushion (1.03 g/ml) was used to separate unbound phage from cells during time course experiments. Inhibitors of phage binding and internalization (heparin, chondroitin, glycocalyx removal enzymes, endocytosis inhibitors, free peptides, quantum dots and UV-inactivated phage) were added to the cells 20 minutes prior to incubation with phage. Endocytosis inhibitors used in this study were the following: nystatin (50 μg/ml), genistein (100 μg/ml), chlorpromazine (5 μg/ml), 5-(N-ethyl-N-isopropyl) amiloride (100 μM), wortmannin (10 μM).

Du-145 = test: RPARPAR phage binding to cultured cells at 4° C.; assay type: cell-based, human; conditions: Du-145 prostate cancer cells
Procedure: (§2) FIG. 15A: Binding of RPARPAR (SEQ ID NO:2) phage to the cultured cells at 4° C. in vitro. FIG. 15B: Binding of RPARPAR (SEQ ID NO:2) phage to primary cell suspensions of mouse organs at 4° C. ex vivo. FIGS. 15C and 15D: Tissue distribution of intravenously injected RPARPAR (SEQ ID NO:2) phage after 20 minutes of circulation time. FIG. 15C: Phage was quantified by titration, tissue binding is expressed as fold G7 phage. Statistical analysis was performed by Student's t-test (c). n=3; error bars indicate s.d.; double asterisk, p<0.01, triple asterisk, p<0.001. FIG. 15D (panels d and e): Immunofluorescence localization of T7 phage (light coloring) in lung sections of mice injected intravenously with RPARPAR (SEQ ID NO:2) (d) or G7 (e) phage. Widespread immunoreactivity is present in the lungs of mice injected with RPARPAR (SEQ ID NO:2) (arrowheads in d) but not G7 (with occasional labeling seen in vessels, arrows in e). Scale bar: 50 μm.
(§3) Phage display. For in vivo phage display, mice were injected intravenously with 10^10 plaque-forming units (pfu) of T7 phage followed by perfusion of the circulatory system and determination of the bound phage in target organs by titration. For cell binding studies on cultured cells (in vitro display) and organ-derived cell suspensions (ex vivo display), the cells were incubated with 10^9 pfu of phage at 4° C., washed, lysed, and quantified by titration. […]

PC-3 = test: RPARPAR phage binding to cultured cells at 4° C.; assay type: cell-based, human; conditions: PC-3 prostate cancer cells
Procedure: as §2, §3

[2] = Tissue distribution of intravenously injected phage in mice (titration, immunofluorescence); assay type: in vivo, mouse; conditions: intravenous
Procedure: as §2, §1
In vivo phage homing studies in mice were carried out by injecting 10^10 pfu of T7 phage into tail vein and 10 minutes to 1 hour later, the mice were perfused with DMEM through the left ventricle of the heart. The organs of interest were collected, homogenized in 1% NP40 and the phage was quantified by titration.

PPC-1 cells [3] = test: Confocal immunofluorescence co-staining of phage/qdots with cellular markers in PPC-1 cells; assay type: cell-based, human

Substance: RPARPAR [RPARPAR phage]
- Phage binding to PPC-1 cells (in words) (PPC-1 cells [1]; 4° C.): stronger binding than the GGGGGGR; also recorded: robust binding and internalization
- Time to plateau of phage binding (PPC-1 cells [1]; 4° C.): 20 min
- Phage binding after trypsin treatment of PPC-1 cells (PPC-1 cells [1]; trypsin treatment of cells prior to binding, data not shown): decreased binding
- Phage binding (Du-145): bound
- Phage binding (PC-3): bound
- Penetration into tissue parenchyma (lungs) [2]: able to penetrate into tissue parenchyma
- Phage immunoreactivity in lung sections [2]: seen throughout the tissue
- Accumulation of intravenously injected phage in the heart ([2]; 20 minutes of circulation): to a lesser extent
- Accumulation of intravenously injected phage in the lungs ([2]; 20 minutes of circulation): accumulated strongly
- Overlap of phage immunoreactivity with labeled cholera toxin subunit B (PPC-1 cells [3]; 180 minutes): significant overlap
- Overlap of internalized phage staining with subcellular compartment markers (PPC-1 cells [3]; LAMP-1, caveolin-1, calnexin, EEA-1, 60 minutes): did not show any clear overlap
